The subject of experiment [1] is P. berghei. Nature of the experiment: Liver stage parasite load, luciferase-expressing P. berghei in HepG2 cells. Format: cell-based, Plasmodium berghei ANKA. The settings on record: HepG2 host cells. How it is done: (§1) Cell-based anti-Plasmodium assays. For liver stage assays, 15,000 HepG2 or 8,000 Huh7 cells/well were added to 384-well microtiter plates using a multichannel pipette (Rainin). After 2 hours at 37° C., compounds (0-100 μM) were added to cells in duplicate or triplicate in a final concentration of 1% DMSO. DMSO was used as the negative control. Following compound incubation at 37° C. for ˜1 hr, harvested luciferase-expressing P. berghei ANKA sporozoites were added to the plates at a density of 3,000 sporozoites/well. P. berghei ANKA sporozoites were obtained from harvesting the salivary glands of infected A. stephensi mosquitoes. The plates were spun for 10 min at 1,000 rpm, and then incubated at 37° C. for ˜45 hrs. […] After ˜45 hours at 37° C., liver cell viability was assessed using CellTiter-Fluor (Promega) and then parasite load was determined using Bright-Glo (Promega). The relative fluorescence and luminescence signal intensity of each well was evaluated with an EnVision System. The luminescence signal in the presence of compounds was normalized to the negative control (DMSO). Dose-response analysis was performed with GraphPad Prism to yield the reported EC50 values.
Anti-Plasmodium activity was evaluated in the parasite's liver stage using a previously reported high-throughput assay. In this assay, luciferase-expressing P. berghei (murine) parasites are used to infect human hepatoma cells (HepG2) and parasite load is assessed with a luminometer subsequent to evaluating HepG2 viability using a commercially available quantification kit that measures intracellular protease activity.
(§2) Specifically, their ability to inhibit P. berghei infection in two human hepatoma cell lines (HepG2 and Huh7) as well as cytotoxicity against HepG2 and Huh7 cells was determined as described above. Liver cell cytotoxicity was evaluated with two different commercially available assays, one that tests for intracellular protease activity with a fluorescence reporter and another that relies on the luminescent detection of total ATP.

The subject of experiment [2] is P. berghei. Briefly: Liver stage parasite load, luciferase-expressing P. berghei in Huh7 cells. Format: cell-based, Plasmodium berghei ANKA. The settings on record: Huh7 host cells, read-out: IC50 Liver state (Huh7). How it is done: as §1, §2
A further experiment has as its system P. berghei EEFs. Briefly: Immunofluorescence analysis of P. berghei EEFs in Huh7 cells. The class given is cell-based. How it is done:
Immunofluorescence analysis of EEFs. For immunofluorescence analysis of EEFs, Huh7 cells were fixed with 4% paraformaldehyde for 10 min at room temperature (RT), washed thrice with PBS, permeabilized with cooled methanol for 10 min at −20° C. and blocked with 3% BSA in PBS for 30 min at RT. Thereafter, cells were incubated with a primary antibody, mouse anti-PbHSP70 (clone 2E6 1:1000) diluted in blocking buffer overnight at 4° C. Following incubation, samples were washed with PBS and incubated for 1 hr at RT with a secondary antibody, goat anti-mouse AlexaFluor 488 (1:400, Life Technologies). Finally, nuclei were stained with DAPI for 15 min at RT. For evaluation of fluorescence intensity from EEFs after infection with GFP-expressing P. berghei sporozoites, DAPI nucleus staining was performed following cell fixation. After five washes with PBS, ˜40 μl PBS was left in wells and images were acquired on a Zeiss Axio Observer widefield fluorescence microscope.
To further investigate the effect of compound 1 during malaria's liver stage, immunofluorescence assays were performed. Infected Huh7 cells were treated with 10 μM or 30 μM compound 1 for various period of time ranging from 0-24 h post-infection (hpi), 24-48 hpi and 0-48 hpi, and subsequently labeled with P. berghei HSP70 antibodies at 48 hpi. […] EEF size as compared to DMSO treated cells at all time periods tested (One-way ANOVA P<0.0001). The number of P.b. EEFs was not affected by 10 μM compound 1 as compared to DMSO treatment (FIG. 4B; One-way ANOVA P=0.0804). Similarly, treatment of infected cells with 30 μM compound 1 led to increased P.b. EEF size when added either for 0-24 hpi or 24-48 hpi. (FIGS. 4C and 4E; One-way ANOVA P<0.0001). […] Moreover, total fluorescence signal from GFP-expressing P.b. EEFs decreased with compound 1 when added for a period of 48 h post-infection. […] EEF size was increased by 10 μM compound 1 as compared to DMSO treated cells.

For another experiment, the system named is panel of 140 kinases. Briefly: Kinase selectivity profiling, 33P-ATP filter-binding assay (Dundee). Format: biochemical. The settings on record: of the 140 kinases, 10 μM. How it is done: (§3) Kinase selectivity profiling. The selectivity profile of HS-206 to inhibit mammalian kinases was tested against a panel of 140 kinases at a single concentration of 10 μM. Tests were performed using a radiolabeld (^33P-ATP) filter-binding assay at the International Centre for Kinase Profiling at the University of Dundee, UK (http://www.kinase-screen.mrc.ac.uk/).
(§4) This panel contains members of all major kinase families, including tyrosine kinases (TK), tyrosine kinase-like (TKL), sterile serine/threonine (STE), and CDK/MAPK/GSK/CLK (CMGC). […] For these kinases, IC50 values were determined (Table 1).

A further experiment has as its target CLK2 (Homo sapiens, UniProt P49760). Briefly: Kinase profiling (Dundee), CLK2. Format: biochemical. The settings on record: 10 μM. How it is done:
as §3, §4

In a further experiment the target is IRAK1 (Homo sapiens, UniProt P51617). Nature of the experiment: Kinase profiling (Dundee), IRAK1. The class given is biochemical. How it is done: as §3, §4
IRAK1, sequence (P51617 whole entry): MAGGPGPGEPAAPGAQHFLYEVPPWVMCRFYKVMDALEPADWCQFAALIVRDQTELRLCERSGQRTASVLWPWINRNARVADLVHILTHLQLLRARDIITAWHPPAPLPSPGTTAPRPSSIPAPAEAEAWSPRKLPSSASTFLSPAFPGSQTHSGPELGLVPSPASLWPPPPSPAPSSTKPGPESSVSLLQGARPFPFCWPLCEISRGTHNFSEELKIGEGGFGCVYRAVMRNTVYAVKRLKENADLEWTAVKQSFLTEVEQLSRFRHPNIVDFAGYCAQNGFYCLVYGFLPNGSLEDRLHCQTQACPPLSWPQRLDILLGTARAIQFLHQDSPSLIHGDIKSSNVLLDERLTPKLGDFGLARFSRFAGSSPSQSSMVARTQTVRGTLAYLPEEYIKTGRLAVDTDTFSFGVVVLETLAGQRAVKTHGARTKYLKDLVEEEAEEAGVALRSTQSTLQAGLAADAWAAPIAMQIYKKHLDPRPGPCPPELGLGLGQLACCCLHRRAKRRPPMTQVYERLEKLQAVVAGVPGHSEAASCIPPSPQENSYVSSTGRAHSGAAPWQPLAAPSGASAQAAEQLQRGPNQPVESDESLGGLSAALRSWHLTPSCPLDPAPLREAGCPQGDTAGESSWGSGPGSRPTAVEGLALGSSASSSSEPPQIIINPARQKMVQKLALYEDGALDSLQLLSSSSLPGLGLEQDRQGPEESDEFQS
The next experiment addresses IRAK4 (Homo sapiens, UniProt Q9NWZ3). Briefly: Kinase profiling (Dundee), IRAK4. Format: biochemical. How it is done:
as §3, §4

Another experiment deals with MINK1 (Homo sapiens, UniProt Q8N4C8). Nature of the experiment: Kinase profiling (Dundee), MINK1. The class given is biochemical. The settings on record: 10 μM. How it is done:
as §3, §4

In experiment [3] the test system is TAK1 downstream signaling (IKK, p38) in MDA-MB-231 cells. Briefly: TNFα dependent signaling in MDA-MB-231 cells. The class given is cell-based. The settings on record: 10 μM, 2 h pretreatment, TNFα stimulation. How it is done:
In order to investigate the effects of HS-206 on cellular signaling, MDA-MB-231 and Hela cells were pretreated with 10 μM HS-206 for 2 h and stimulated with TNFα (FIG. 8).

Each structure is given as a SMILES string. Entries after “also recorded” stand apart in the source; their conditions may differ.

Results on 1 molecule are retold here after patent publication US11767298B2, “Substituted benzimidazoles as inhibitors of transforming growth factor-β kinase” (Duke University, priority 2016, dated 2023).

As a reminder, the IC50 is the concentration needed to halve the response being measured. By inhibition is commonly meant the drop in the measured response relative to a control, in per cent. Read a high inhibition as a strong effect.

IRAK4, sequence (Q9NWZ3 whole entry): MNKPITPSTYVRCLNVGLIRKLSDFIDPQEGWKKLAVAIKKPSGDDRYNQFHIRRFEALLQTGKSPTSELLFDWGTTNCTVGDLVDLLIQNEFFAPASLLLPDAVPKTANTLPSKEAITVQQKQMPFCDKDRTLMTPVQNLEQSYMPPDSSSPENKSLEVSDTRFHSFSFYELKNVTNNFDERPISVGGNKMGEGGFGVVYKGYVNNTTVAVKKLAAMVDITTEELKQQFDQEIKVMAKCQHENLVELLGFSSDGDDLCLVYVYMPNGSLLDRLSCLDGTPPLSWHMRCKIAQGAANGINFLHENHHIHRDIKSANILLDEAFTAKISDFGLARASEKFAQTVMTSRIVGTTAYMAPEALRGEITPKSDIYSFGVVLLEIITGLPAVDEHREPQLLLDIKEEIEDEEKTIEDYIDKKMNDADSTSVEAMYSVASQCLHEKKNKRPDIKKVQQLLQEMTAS
MINK1, sequence (Q8N4C8 whole entry): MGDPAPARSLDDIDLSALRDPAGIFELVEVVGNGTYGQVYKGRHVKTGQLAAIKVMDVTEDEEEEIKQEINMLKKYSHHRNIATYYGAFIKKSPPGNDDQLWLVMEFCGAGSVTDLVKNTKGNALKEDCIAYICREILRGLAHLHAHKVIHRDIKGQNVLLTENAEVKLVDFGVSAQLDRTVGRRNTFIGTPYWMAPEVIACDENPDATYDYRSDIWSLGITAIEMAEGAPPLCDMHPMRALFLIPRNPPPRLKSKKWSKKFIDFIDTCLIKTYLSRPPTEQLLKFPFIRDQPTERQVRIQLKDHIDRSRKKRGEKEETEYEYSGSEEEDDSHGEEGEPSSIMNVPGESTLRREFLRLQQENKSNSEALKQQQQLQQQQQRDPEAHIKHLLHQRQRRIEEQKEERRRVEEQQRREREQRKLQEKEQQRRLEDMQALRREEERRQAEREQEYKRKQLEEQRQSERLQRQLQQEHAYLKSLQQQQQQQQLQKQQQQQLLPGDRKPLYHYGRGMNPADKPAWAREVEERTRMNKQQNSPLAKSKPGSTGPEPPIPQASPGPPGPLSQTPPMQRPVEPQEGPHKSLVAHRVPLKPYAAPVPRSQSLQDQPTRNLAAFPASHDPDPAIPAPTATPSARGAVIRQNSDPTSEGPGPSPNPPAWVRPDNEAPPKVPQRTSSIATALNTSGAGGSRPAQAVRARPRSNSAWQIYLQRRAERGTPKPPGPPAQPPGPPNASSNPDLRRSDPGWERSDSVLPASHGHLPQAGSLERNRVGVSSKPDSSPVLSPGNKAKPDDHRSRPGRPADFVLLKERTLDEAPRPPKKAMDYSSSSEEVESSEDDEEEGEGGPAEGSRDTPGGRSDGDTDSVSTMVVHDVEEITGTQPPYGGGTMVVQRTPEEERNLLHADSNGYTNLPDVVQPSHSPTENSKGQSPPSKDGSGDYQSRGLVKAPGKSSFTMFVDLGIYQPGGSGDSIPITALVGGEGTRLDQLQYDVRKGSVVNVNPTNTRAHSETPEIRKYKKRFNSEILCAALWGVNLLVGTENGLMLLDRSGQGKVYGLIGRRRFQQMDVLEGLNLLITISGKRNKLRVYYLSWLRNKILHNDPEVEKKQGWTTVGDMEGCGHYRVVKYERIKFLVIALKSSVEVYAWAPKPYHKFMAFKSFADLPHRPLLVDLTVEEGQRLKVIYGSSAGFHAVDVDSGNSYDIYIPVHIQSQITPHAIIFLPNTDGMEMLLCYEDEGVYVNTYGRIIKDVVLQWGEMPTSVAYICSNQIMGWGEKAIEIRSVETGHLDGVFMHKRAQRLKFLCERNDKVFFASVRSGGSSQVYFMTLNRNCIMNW
CLK2, sequence (P49760 whole entry): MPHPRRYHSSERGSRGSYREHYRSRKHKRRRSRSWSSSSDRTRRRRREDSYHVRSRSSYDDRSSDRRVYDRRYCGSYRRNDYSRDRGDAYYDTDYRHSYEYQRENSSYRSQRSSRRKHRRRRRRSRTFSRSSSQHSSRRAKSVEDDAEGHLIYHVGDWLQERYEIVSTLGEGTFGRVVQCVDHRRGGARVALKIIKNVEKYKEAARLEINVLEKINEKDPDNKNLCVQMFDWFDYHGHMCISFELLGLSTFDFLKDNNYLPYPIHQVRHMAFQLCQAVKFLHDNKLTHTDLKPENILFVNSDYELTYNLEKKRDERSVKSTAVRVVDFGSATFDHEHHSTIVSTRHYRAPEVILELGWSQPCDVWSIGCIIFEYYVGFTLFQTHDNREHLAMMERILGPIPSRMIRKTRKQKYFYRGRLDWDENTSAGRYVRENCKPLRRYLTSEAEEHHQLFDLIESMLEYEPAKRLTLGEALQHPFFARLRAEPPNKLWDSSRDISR

As for `CCCn1c(NC(=O)c2cccc(C(N)=O)c2)nc2ccccc21` [HS-206 (1), (E)-N-(1-Propyl-1,3-dihydro-2H-benzo[d]imidazol-2-ylidene)isophthalamide], the IC50 in the experiment with P. berghei [1] (Plasmodium berghei, HepG2, parasite load) is approximately 7 µM; with P. berghei [1] (parasite load), 6.6 µM; with P. berghei [2] (Plasmodium berghei, Huh-7, parasite load), approximately 7 µM; in the experiment on P. berghei [2] (parasite load), 7.3 µM; against IRAK1, 0.39 ± 0.05 µM; at IRAK4, 0.12 ± 0.03 µM. In addition, the “P.b. EEF size” value in the experiment with P. berghei EEFs (10 μM, 0-24, 24-48 and 0-48 hpi, Huh7) is given as “significantly increased”; with P. berghei EEFs (30 μM, added 0-24 hpi or 24-48 hpi, Huh7), “increased”. The “number of P.b. EEFs” value in the experiment with P. berghei EEFs (10 μM, Huh7) is “not affected”; in the experiment on P. berghei EEFs (30 μM, added 0-24 hpi or 0-48 hpi) it was “decreased”; in the experiment on P. berghei EEFs (30 μM, treatment from 24-48 hpi) it was “did not significantly decreased”. Moreover, the “total fluorescence signal from GFP-expressing P.b. EEFs” value in the experiment with P. berghei EEFs (10 and 30 μM, 48 h post-infection) was “decreased”. In the experiment with panel of 140 kinases, the “number of kinases with ≥80% inhibition” value is 11. Also, the inhibition at 10 µM at CLK2, against IRAK1 (10 μM), against IRAK4 (10 μM) and at MINK1 was more than 90% in each case. For the same molecule, the “TNFα dependent signaling (activation of IKK and p38)” value in experiment [3] is “inhibited activation of IKK and p38; also recorded: inhibits TNFα dependent signaling”.
